# Source: US5560924A, “Medicament containing a 2-arylpropionic acid derivative in nanosol form and its preparation” (priority 1994, dated 1996)
# Columns and labels:
# [1] = cited from earlier work
# [2] = rapid test for determination of the particle surface charge with standard gelatins; assay type: physicochemical; conditions: rapid test at pH 4.5, standard type A (IEP 9.5) and type B (IEP 3.5) gelatins, 200 bloom
# Description: In a first rapid test it is determined what charge the precipitated particles have. […] If the particles are, for example, negatively charged, a gelatin is picked which is positively charged under the given pH conditions. This rapid test for the determination of the particle charge has the advantages that it can be carried out without a great outlay in terms of apparatus and time. A time-consuming and inaccurate zeta potential measurement can thus be dispensed with entirely.
# At the same dose of the pharmaceutical substance, in the case of the gelatin which is unsuitable in its state of charge a colloidal system will either not form or immediately become unstable or the pharmaceutical substance will flocculate. If the resulting particles are negatively charged, they are stabilized rather by the gelatin solution of Type A, which is positively charged at a pH of 6, than by the solution containing Type B gelatin; in contrast, in this case Type B either will form no colloidal system or the system will immediately destabilize. The flocculation of the particles can be monitored e.g. via a simple turbidity measurement.
# Under identical test conditions, the standard type A gelatin (IEP 9.5/200 bloom) yields a briefly stable nanosol.
# [3] = cited from earlier work; remark: listed apart in the source
SMILES,tmax (time to blood level maximum) ([1]; conventional ibuprofen),time until therapeutic concentrations are achieved ([1]; in 2 of 8 subjects investigated),surface charge of the particles [2],pKa [3]
"CC(C)Cc1ccc(C(C)C(=O)O)cc1 (racemic) [ibuprofen, 2-(4-isobutylphenyl)propionic acid]",1 to 2 h,more than 4 hours,,
"CC(C(=O)O)c1cccc(C(=O)c2ccccc2)c1 (racemic) [ketoprofen, 2-(3-benzoylphenyl)propionic acid]",,,negative surface charge,5.3
